Laboratory results: publication PMC7202735 (Journal of medicinal chemistry, 2018)

Assays:
CB1 = conditions: cited from earlier work
MG63 cells = assay: Wound healing scratch assay, MG63; assay type: cell-based, human; conditions: MG63 cell line, Figure 2d
endothelial HUVEC cells = assay: Angiogenesis assay: endothelial tube formation on matrigel; assay type: cell-based, human; conditions: 0.5 μM and 1 μM, 5 hours
143B cells = assay: Wound healing scratch assay, 143B; assay type: cell-based, human; conditions: 143B cell line, with rimonabant, Supplementary Figure S4
143B = assay: Cell cycle analysis by propidium iodide staining, 143B; assay type: cell-based, human; conditions: treated 24 hours
[1] = target: T1, Fatty acid amide hydrolase (FAAH) (Sus scrofa, UniProt Q9TUI8); conditions: cited from earlier work
T1 sequence (Q9TUI8 1-579): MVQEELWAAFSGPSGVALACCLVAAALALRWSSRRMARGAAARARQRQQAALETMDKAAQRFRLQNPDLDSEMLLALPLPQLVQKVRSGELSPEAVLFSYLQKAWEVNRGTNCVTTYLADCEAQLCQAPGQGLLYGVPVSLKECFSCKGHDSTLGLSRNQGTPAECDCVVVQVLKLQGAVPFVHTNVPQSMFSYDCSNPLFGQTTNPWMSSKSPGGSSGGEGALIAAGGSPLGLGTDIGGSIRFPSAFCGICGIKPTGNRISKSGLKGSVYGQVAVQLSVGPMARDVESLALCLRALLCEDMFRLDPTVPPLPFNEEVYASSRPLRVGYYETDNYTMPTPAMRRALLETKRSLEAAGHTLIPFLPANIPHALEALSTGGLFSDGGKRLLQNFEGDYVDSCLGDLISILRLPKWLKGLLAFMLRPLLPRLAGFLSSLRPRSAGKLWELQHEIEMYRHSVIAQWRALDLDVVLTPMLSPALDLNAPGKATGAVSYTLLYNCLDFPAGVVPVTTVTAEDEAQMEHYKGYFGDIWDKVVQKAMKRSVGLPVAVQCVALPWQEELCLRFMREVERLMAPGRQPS

HOS, 143B and MG63 cells = assay type: cell-based, human; conditions: for induction of apoptosis as compared to no treatment control: all three cell lines, 12.5 μM; for apoptotic activity as compared to control: antagonist alone, supplementary tables 2–4

With `CCCCCC=CCC=CCC=CCC=CCCCC(=O)NC(C)CO` (single isomer, unassigned) [R isomer] as the compound, how does the “CB1 binding, fold higher as compared to AEA” value (CB1) read?
Its value is 4 fold.

Which “CB1 binding, fold lower as compared to AEA” value (CB1) does the source give for `CCCCCC=CCC=CCC=CCC=CCCCC(=O)NC(C)CO` (single isomer, unassigned) [S isomers] here?
The value was 2 fold.

Which results are given for `CC/C=C\C/C=C\C/C=C\CC1OC1C/C=C\C/C=C\CCC(=O)NC1CC1` (stereo not drawn) [10,11-EDP-CA, (4Z,7Z)-N-cyclopropyl-9-(3-((2Z,5Z,8Z)-undeca-2,5,8-trien-1-yl)oxiran-2-yl)nona-4,7-dienamide]?
restriction in wound healing as compared to the control (MG63 cells): comparable to 10,11-EDP-EA; tube formation as compared to the vehicle control (endothelial HUVEC cells): Restriction of tube formation

For `CC/C=C\C/C=C\C/C=C\CC1OC1C/C=C\C/C=C\CCC(=O)NCCO` (stereo not drawn) [10,11-EDP-EA, (4Z,7Z)-N-(2-hydroxyethyl)-9-(3-((2Z,5Z,8Z)-undeca-2,5,8-trien-1-yl)oxiran-2-yl)nona-4,7-dienamide], which “reduction of cell migration in presence of CB1 receptor antagonist” value (143B cells) is on record?
Its value is “completely abolished”.

And the “tube formation as compared to the vehicle control” value (endothelial HUVEC cells)?
The value was “Restriction of tube formation”.

With `CC/C=C\C/C=C\C/C=C\CC1OC1C/C=C\C/C=C\CCC(=O)NC(C)CO` (stereo not drawn) [10,11-EDP-IA, (4Z,7Z)-N-(1-hydroxypropan-2-yl)-9-(3-((2Z,5Z,8Z)-undeca-2,5,8-trien-1-yl)oxiran-2-yl)nona-4,7-dienamide] as the compound, how does the “restriction in wound healing as compared to the control” value (MG63 cells) read?
The value was “slightly poorer than the control”.

What about the “tube formation as compared to the vehicle control” value (endothelial HUVEC cells) of the same compound?
Its value is “Restriction of tube formation”.

Which “restriction in wound healing as compared to the control” value (MG63 cells) does the source give for `CC/C=C\C/C=C\C/C=C\CC1OC1C/C=C\C/C=C\CCC(=O)NCCCO` (stereo not drawn) [10,11-EDP-NA, (4Z,7Z)-N-(3-hydroxypropyl)-9-(3-((2Z,5Z,8Z)-undeca-2,5,8-trien-1-yl)oxiran-2-yl)nona-4,7-dienamide] here?
Its value is “slightly poorer than the control”.

What about the “percentage of cells in S” value (143B) of the same compound?
The value was “slight suppression”.

What about the “tube formation as compared to the vehicle control” value (endothelial HUVEC cells) of the same compound?
Its value is “Restriction of tube formation”.

With `CCC1OC1C/C=C\C/C=C\C/C=C\C/C=C\C/C=C\CCC(=O)NCCO` (stereo not drawn) [19,20-EDP-EA] as the compound, how does the rate of hydrolysis [1] read?
The rate of hydrolysis was 150 pmol min−1 mg protein−1.

With `CCCCC/C=C\C/C=C\C/C=C\C/C=C\CCCC(=O)O` [AA, arachidonic acid] as the compound, how does the “induction of apoptosis as compared to no treatment control” value (HOS, 143B and MG63 cells) read?
The value was “no induction of apoptosis”.

For `CCCCC/C=C\C/C=C\C/C=C\C/C=C\CCCC(=O)NCCO` [AEA, arachidonoyl ethanolamide], which “induction of apoptosis as compared to no treatment control” value (HOS, 143B and MG63 cells) is on record?
The value was “no induction of apoptosis”.

For `COc1ccc(C(=O)c2c(C)n(CCN3CCOCC3)c3cc(I)ccc23)cc1` [AM 630], which “apoptotic activity as compared to control” value (HOS, 143B and MG63 cells) is on record?
Its value is “very limited apoptotic activity”.

For `CC/C=C\C/C=C\C/C=C\C/C=C\C/C=C\C/C=C\CCC(=O)O` [DHA, docosahexaenoic acid], which “induction of apoptosis as compared to no treatment control” value (HOS, 143B and MG63 cells) is on record?
Its value is “no induction of apoptosis”.

Which “induction of apoptosis as compared to no treatment control” value (HOS, 143B and MG63 cells) does the source give for `CC/C=C\C/C=C\C/C=C\C/C=C\C/C=C\C/C=C\CCC(=O)NCCO` [DHEA, docosahexaenoylethanolamide] here?
Its value is “no induction of apoptosis”.

Which “apoptotic activity as compared to control” value (HOS, 143B and MG63 cells) does the source give for `Cc1c(C(=O)NN2CCCCC2)nn(-c2ccc(Cl)cc2Cl)c1-c1ccc(Cl)cc1` [rimonabant] here?
The value was “very limited apoptotic activity”.
